# Measurements as given in patent US20030180375A1, “Use of xenon for treating neurointoxications” (AGA AB, priority 1999, published 2003).
# Columns and labels:
# PC12 cells [1] = test: Dopamine release of differentiated PC12 cells under stress conditions (N2 hypoxia, glutamate), Example 2; format: cell-based, rats; set-up: dopamine release: dose or concentration left out as unconfirmed; settings: FIG. 2
# From the text: The differentiated PC12 cells described in Example 1 were distributed to various vessels and exposed to differing conditions. These conditions are defined as follows: […]
# The dopamine release may even be increased if, in addition to the nitrogen atmosphere, glutamate, which represents a neurotransmitter and has a neurotoxic effect in greater doses, was given as well (group: Glu+N2).
# Thus, the addition of glutamate to the cells effects an increased dopamine release, particularly when the cells are kept under hypoxic conditions.
# PC12 cells [2] = test: Dopamine release of differentiated PC12 cells in a hypoxic situation (helium instead of oxygen), Example 1; format: cell-based, rats
# From the text: An in vitro experiment with PC12 cells is concerned. These PC12 cells are dependants of a pheochromocytoma of rats. […] PC12 cells can be reproduced continuously in vitro. Following the addition of “nerve growth factor”, they start differentiating and become neurons which in many respects have the property of in vivo neurons, particularly the properties which relate to the neurotransmitter release. PC12 cells are acknowledged as neuronal model.
# PC12 cells differentiated in such a manner when exposed to a hypoxic situation, release dopamine. […] If the cells are treated under these hypoxic conditions with xenon in defined concentrations over the same period of time, the neurotransmitter release will be dropped. […] If a hypoxic situation is triggered by a dose of helium instead of oxygen, the curve of the dopamine concentration will result as shown in the curve produced from the solid triangles. A maximum dopamine concentration is shown in this case after about 40 minutes. […] In the above-described experiment, the gases used were given to the cells by mixing them with the growth buffer for the cells. In this case, saturated gas buffer solutions are involved.
smiles,measurement,setting,value
[Xe] [xenon],dopamine release compared to the corresponding (glutamate+N2) experiment,PC12 cells [1]; Glu+Xe: 10 M glutamate for 30 minutes of incubation in xenon,reduced by two-thirds
same,dopamine release,PC12 cells [1]; Glu+Xe: glutamate for 30 minutes of incubation in xenon,slightly increased dopamine release
same,unintentional neurotransmitter release,"PC12 cells [1]; simultaneous supply of xenon, glutamate and/or hypoxic conditions",reduced many times over
same,reversibility of the xenon effect,"PC12 cells [2]; after the xenon is washed out, cells cannot be distinguished from untreated cells",fully reversible
same,dopamine concentration over the time course,"PC12 cells [2]; xenon given in a hypoxic situation, saturated gas buffer solution, compared with non-stressed controls, FIG. 1A",virtually no longer differ from the control cell population
same,relative dopamine concentration (dopamine release),"PC12 cells [2]; xenon in a hypoxic situation, compared with control cells, FIG. 1B",reduced down to values of the control cells
